{
  "source": "patent US8580836B2",
  "about": "“Plant disease control composition and method of controlling plant disease” (Sumitomo Chemical Company, Limited, priority 2010, dated 2013)",
  "assay_type_in_all_cases": "in vivo",
  "key": {"[1]": {"test_system": "Mycosphaerella graminicola (Septoria tritici)", "test": "Test of effect of preventing Mycosphaerella graminicola (Septoria tritici) on wheat, foliar spray", "conditions": "50 ppm foliar spray; wheat (Apogee); inoculated two days after spraying", "experimental": "The control effect was evaluated by visually observing the area of a lesion on a test plant in investigation, and comparing the area of a lesion on a plant treated with a test composition and the area of a lesion on a non-treated plant.\nTest of Effect of Preventing Mycosphaerella graminicola (Septoria tritici)\nA plastic pot was stuffed with a soil, wheat (variety; Apogee) was sown on this, and allowed to grow in a greenhouse for 10 days. […] After spraying, the plant was air-dried, and two days after, inoculated with an aqueous suspension of Septoria tritici spores by spraying. After inoculation, the plant was first allowed to stand under humid condition at 18° C. for 3 days, further, allowed to stand for 14 to 18 days under illumination, then, the lesion area was checked. As a result, the lesion on the plant treated with the present carboxamide compounds (1), (2) and (3) was 10% or less of the lesion area on a non-treated plant.\nThe same test was carried out excepting the application concentration, using racemic N-(1,1,3-trimethylindan-4-yl)-1-methyl-3-trifluoromethylpyrazole-4-carboxylic amide (hereinafter, referred to as racemic compound (A)) instead of the present carboxamide compound. As a result, the lesion area on the plant treated with 50 ppm of the racemic compound (A) was 75% or more of the lesion area on a non-treated plant."}, "Phakopsora pachyrhizi [2]": {"test_system": "Phakopsora pachyrhizi", "test": "Test Example 5: test of effect on Phakopsora pachyrhizi on soybean, foliar spray", "conditions": "soybean (Natto shoryu), inoculated 14 days after spraying, lesion area of first trifoliate", "experimental": "(§1) Based on the lesion areas in the treated plot and the non-treated plot, the effect of the treated plot was calculated according to the following formula (I). The results are shown in [Table 1]. Effect(%)=(1−(lesion area in treated plot)/(lesion area in non-treated plot))×100 formula (1)\n(§2) Test of Effect on Phakopsora pachyrhizi\n(§3) A plastic pot was stuffed with a soil, soybean (variety; Natto shoryu) was sown on this, and allowed to grow in a greenhouse until unfolding of the unifoliate. The present carboxamide compounds (2) and (3) and racemic N-(1,1,3-trimethylindan-4-yl)-1-methyl-3-difluoromethylpyrazole-4-carboxamide (hereinafter, referred to as racemic compound (B)) and racemic N-(1,1,3-trimethylindan-4-yl)-1,3,5-trimethylpyrazole-4-carboxamide (hereinafter, referred to as racemic compound (C)) were prepared into formulations according to Formulation Example 6, then, the formulations were diluted with water to attain a prescribed concentration, and sprayed to foliar part so as to satisfactorily adhere to the leaf surfaces of the soybean. The soybean was further cultivated at room temperature for 14 days, and grown until unfolding of the first trifoliate. The plant was inoculated with an aqueous suspension of Phakopsora pachyrhizi spores by spraying. After inoculation, the plant was allowed to stand under humid condition at 23° C. overnight, further, allowed to stand for 7 days at room temperature, then, the lesion area of the first trifoliate was checked.\nBased on the lesion areas in the treated plot and the non-treated plot, the effect of the treated plot was calculated according to the above-described formula (I). The results are shown in [Table 2]."}, "Phakopsora pachyrhizi [3]": {"test_system": "Phakopsora pachyrhizi", "test": "Test Example 4: test of effect on Phakopsora pachyrhizi on soybean, foliar spray", "conditions": "50 ppm; soybean (Natto shoryu); inoculated 14 days after spraying; lesion area of first trifoliate", "experimental": "as §2\nas §3, with “carboxamide” for “carboxamide compounds (2) and (3) and racemic N-(1,1,3-trimethylindan-4-yl)-1-methyl-3-difluoromethylpyrazole-4-carboxamide (hereinafter, referred to as racemic”, “compound (1) was” for “compound (B)) and racemic N-(1,1,3-trimethylindan-4-yl)-1,3,5-trimethylpyrazole-4-carboxamide (hereinafter, referred to as racemic compound (C)) were”, “cultivated in greenhouse” for “cultivated at room temperature”, “first trifolidate.” for “first trifoliate.”\nas §1"}},
  "data": [
    {"smiles": "CC1CC(C)(C)c2cccc(NC(=O)c3cn(C)nc3C(F)(F)F)c21", "note": "(racemic) [racemic compound (A), N-(1,1,3-trimethylindan-4-yl)-1-methyl-3-trifluoromethylpyrazole-4-carboxylic amide]", "values": [
      {"measurement": "lesion area on treated plant relative to lesion area on a non-treated plant", "setting": "[1]", "result": "≥ 75", "unit": "%"}
    ]},
    {"smiles": "Cc1nn(C)c(C)c1C(=O)Nc1cccc2c1C(C)CC2(C)C", "note": "(racemic) [Racemic compound (C), N-(1,1,3-trimethylindan-4-yl)-1,3,5-trimethylpyrazole-4-carboxamide, reference compound]", "values": [
      {"measurement": "Effect [%]", "setting": "Phakopsora pachyrhizi [2]; 200 ppm", "result": 76.5, "unit": "%"}
    ]},
    {"smiles": "C[C@@H]1CC(C)(C)c2cccc(NC(=O)c3cn(C)nc3C(F)(F)F)c21", "note": "[present carboxamide compound (1), (R)-(−)-N-(1,1,3-trimethylindan-4-yl)-1-methyl-3-trifluoromethylpyrazole-4-carboxamide]", "values": [
      {"measurement": "Effect [%]", "setting": "Phakopsora pachyrhizi [3]", "result": 98.1, "unit": "%"}
    ]},
    {"smiles": "C[C@@H]1CC(C)(C)c2cccc(NC(=O)c3cn(C)nc3C(F)F)c21", "note": "[present carboxamide compound (2), (R)-(−)-N-(1,1,3-trimethylindan-4-yl)-1-methyl-3-difluoromethylpyrazole-4-carboxamide]", "values": [
      {"measurement": "Effect [%]", "setting": "Phakopsora pachyrhizi [2]; 100 ppm", "result": 77.1, "unit": "%"},
      {"measurement": "Effect [%]", "setting": "Phakopsora pachyrhizi [2]; 200 ppm", "result": 100, "unit": "%"}
    ]},
    {"smiles": "CC1CC(C)(C)c2cccc(NC(=O)c3cn(C)nc3C(F)F)c21", "note": "(racemic) [Racemic compound (B), N-(1,1,3-trimethylindan-4-yl)-1-methyl-3-difluoromethylpyrazole-4-carboxamide, reference compound]", "values": [
      {"measurement": "Effect [%]", "setting": "Phakopsora pachyrhizi [2]; 200 ppm", "result": 46.7, "unit": "%"}
    ]},
    {"smiles": "Cc1nn(C)c(C)c1C(=O)Nc1cccc2c1[C@H](C)CC2(C)C", "note": "[present carboxamide compound (3), (R)-(−)-N-(1,1,3-trimethylindan-4-yl)-1,3,5-trimethylpyrazole-4-carboxamide]", "values": [
      {"measurement": "Effect [%]", "setting": "Phakopsora pachyrhizi [2]; 100 ppm", "result": 98.4, "unit": "%"},
      {"measurement": "Effect [%]", "setting": "Phakopsora pachyrhizi [2]; 200 ppm", "result": 100, "unit": "%"}
    ]}
  ]
}
